{"source": "patent US20100285081A1", "about": "“Bactericidal Nanofibers, and Methods of Use Thereof” (MASSACHUSETTS INSTITUTE OF TECHNOLOGY, priority 2007, published 2010)", "origin": "cited, not measured here", "key": {"[1]": {"test_system": "E. coli", "details": "from Buxbaum et al. 2006"}, "[2]": {"test_system": "S. epidermidis", "details": "from Buxbaum et al. 2006"}}, "data": [{"smiles": "[H]/N=C(\\N/C(=N/[H])NCCCCCCNC(=N)NC(=N)Nc1ccc(Cl)cc1)Nc1ccc(Cl)cc1", "note": "[CHX, chlorhexidine]", "values": [{"measurement": "minimum inhibitory concentration of CHX", "setting": "[1]", "result": "2 to 8", "unit": "µg/mL"}, {"measurement": "minimum inhibitory concentration of CHX", "setting": "[2]", "result": "0.5 to 2", "unit": "µg/mL"}]}]}
